Measured values reported in patent US20210392890A1, “COMPOSITIONS COMPRISING PYRIDINE CARBOXYLATE HERBICIDES AND PLANT GROWTH REGULATORS” (Corteva Agriscience LLC, priority 2018, published 2021).
Several values for one entry are separate records, joined by “and”; a condition that tells them apart may be missing. Equal values may be shown once.

Key:
Type in all cases: in vivo
[1] = system: Veronica hederifolia (ivy-leaved speedwell); test: Greenhouse postemergence herbicidal effect on VERHE
Source text: (§1) Seeds of the desired test plant species were planted in a 90:10% v/v (volume/volume) mixture of PRO-MIX® BX (Premier Tech Horticulture, Quakertown, Pa., USA) and PROFILE® GREENS GRADE™ (Profile Products LLC, Buffalo Grove, Ill., USA) planting mixture, which typically has a pH of 5.2 to 6.2 and an organic matter content of at least 50 percent, in plastic pots with a surface area of 103.2 square centimeters (cm^2). In some aspects, to help ensure good germination and healthy plants, a fungicide treatment and/or other chemical or physical treatment was applied. The plants were grown for 7-36 days (d) in a greenhouse with an approximate 14-hour (h) photoperiod which was maintained at about 23° C. during the day and 22° C. during the night. Nutrients and water were added on a regular basis and supplemental lighting was provided with overhead metal halide 1000-Watt lamps as necessary. The plants were employed for testing when they reached the second or third true leaf stage.
(§2) Emulsifiable concentrates of each of each pyridine carboxylate herbicide (Compound A or Compound B) were prepared at 100 grams acid equivalent per liter (g ae/L). The emulsifiable concentrates also included a safener, cloquintocet-mexyl, at 120 grams active ingredient per liter (g ai/L). […]
(§3) The treated plants and control plants were placed in a greenhouse as described above and watered by sub-irrigation to prevent wash-off of the test compounds. After 20-22 d, the condition of the test plants as compared with that of the control plants was determined visually and scored on a scale of 0 to 100 percent where 0 corresponds to no injury and 100 corresponds to complete kill.

[2] = system: Chenopodium album L. (common lambsquarters); test: Greenhouse postemergence herbicidal effect on CHEAL; conditions: Ethephon 0 g/ha
Source text: as §1
(§4) Emulsifiable concentrates of each of each pyridine carboxylate herbicide (Compound A or Compound B) were prepared at 100 grams acid equivalent per liter (g ae/L). The emulsifiable concentrates also included a safener, cloquintocet-mexyl, at 120 grams active ingredient per liter (g ai/L). An aliquot of each emulsifiable concentrate was placed in a 25 mL glass vial and diluted with an aqueous mixture of 1.25% (v/v) ACTIROB® B esterified rapeseed oil (Bayer Crop Science, Research Triangle Park, N.C., USA) or MSO® Concentrate with LECI-TECH® methylated soybean oil (Loveland Products, Loveland, Colo., USA) to obtain concentrated stock solutions at the highest application rate for each herbicide, based upon a 12 milliliter (mL) application volume at a rate of 187 liters per hectare (L/ha). The concentrated stock solutions were further diluted with an aqueous mixture of 1.25% v/v ACTIROB® B or MSO® Concentrate with LECI-TECH® to obtain stock solutions at reduced application rates for each herbicide. Spray solutions of the herbicide combinations (Compound A or Compound B plus the PGR) were prepared by adding weighed amounts or aliquots of the PGR to the stock solutions of Compound A or Compound B to form 12-mL spray solutions in two-way combinations.
(§5) The spray solutions were applied to the plant material with an overhead Mandel track sprayer equipped with 8002E nozzles calibrated to deliver 187 L/ha over an application area of 0.503 square meters (m^2) at a spray height of 18 inches (43 centimeters (cm)) above the average plant canopy. Control plants were sprayed in the same manner with the solvent blank. All pyridine carboxylate herbicide (component a) application rates are given as “g ae/ha” and all PGR (component b) application rates are given as “g ai/ha.”
as §3

[3] = system: Rumex obtusifolia (broadleaf dock); test: Greenhouse postemergence herbicidal effect on RUMOB; conditions: Ethephon 0 g/ha
Source text: as §1, §2
as §3, with “kill. […]” for “kill.”

[4] = system: Helianthus annuus (common sunflower); test: Greenhouse postemergence herbicidal effect on HELAN; conditions: for Herbicidal Effects (% visual injury) HELAN Obs: Ethephon 0 g/ha
Source text: as §1, §4, §5, §3

[5] = system: Anthemis arvensis (corn chamomile); test: Greenhouse postemergence herbicidal effect on ANTAR
Source text: as §1, §2, §3

[6] = system: Sinapis arvensis (wild mustard); test: Greenhouse postemergence herbicidal effect on SINAR
Source text: as §1, §2, §3

Kochia scoparia (kochia) = test: Greenhouse postemergence herbicidal effect on KCHSC; conditions: for Herbicidal Effects (% visual injury) KCHSC Obs: Ethephon 0 g/ha
Source text: as §1, §4, §5, §3

[7] = system: Setaria faberi (giant foxtail); test: Greenhouse postemergence herbicidal effect on SETFA; conditions: for Herbicidal Effects (% visual injury) SETFA Obs: Ethephon 0 g/ha
Source text: as §1, §4, §5, §3

[8] = system: Polygonum convolvulus (wild buckwheat); test: Greenhouse postemergence herbicidal effect on POLCO; conditions: for Herbicidal Effects (% visual injury) POLCO Obs: Ethephon 0 g/ha
Source text: as §1, §4, §5, §3

[9] = system: Brassica napus (winter rape); test: Greenhouse postemergence herbicidal effect on BRSNW
Source text: as §1, §2, §3

[10] = system: Matricaria inodora (scentless chamomile); test: Greenhouse postemergence herbicidal effect on MATIN
Source text: as §1, §2, §3

[11] = system: Echinochloa crus-galli (barnyard grass); test: Greenhouse postemergence herbicidal effect on ECHCG; conditions: Ethephon 0 g/ha
Source text: as §1, §2
as §3, with “kill. […]” for “kill.”

[12] = system: Cyanus segetum (cornflower); test: Greenhouse postemergence herbicidal effect on CENCY
Source text: as §1, §2, §3

[13] = system: Papaver rhoeas (common poppy); test: Greenhouse postemergence herbicidal effect on PAPRH
Source text: as §1, §2, §3

[14] = system: Cirsium arvense (Canada thistle); test: Greenhouse postemergence herbicidal effect on CIRAR; conditions: for Herbicidal Effects (% visual injury) CIRAR Obs: Ethephon 0 g/ha
Source text: as §1, §4, §5, §3

[15] = system: Brassica napus (spring rape); test: Greenhouse postemergence herbicidal effect on BRSNN; conditions: for Herbicidal Effects (% visual injury) BRSNN Obs: Ethephon 0 g/ha
Source text: as §1, §4, §5, §3

[16] = system: Papaver rhoeas (herbicide-resistant poppy); test: Greenhouse postemergence herbicidal effect on PAPRH-RES
Source text: as §1, §2, §3

## N#CCOC(=O)c1nc(-c2ccc3cc[nH]c3c2F)c(F)c(N)c1Cl [Compound A, cyanomethyl 4-amino-3-chloro-5-fluoro-6-(7-fluoro-1H-indol-6-yl)pyridine-2-carboxylate]
[1]; herbicide 7.5 g ae/ha alone
  % visual injury Obs: 68%
[1]; herbicide 10 g ae/ha alone
  % visual injury Obs: 73%
[1]; herbicide 15 g ae/ha alone
  % visual injury Obs: 75%
[2]; Compound A 7.5 g/ha
  Herbicidal Effects (% visual injury) CHEAL Obs: 100%
[2]; Compound A 10 g/ha
  Herbicidal Effects (% visual injury) CHEAL Obs: 100%
[3]; Compound A 7.5 g/ha
  Herbicidal Effects (% visual injury) RUMOB Obs: 8%
[3]; Compound A 10 g/ha
  Herbicidal Effects (% visual injury) RUMOB Obs: 18%
[4]; Compound A 7.5 g/ha
  Herbicidal Effects (% visual injury) HELAN Obs: 100%
[4]; Compound A 10 g/ha
  Herbicidal Effects (% visual injury) HELAN Obs: 93%
[4]; herbicide 7.5 g ae/ha alone
  % visual injury Obs: 83% and 90%
[4]; herbicide 10 g ae/ha alone
  % visual injury Obs: 88% and 89%
[5]; herbicide 7.5 g ae/ha alone
  % visual injury Obs: 68%
[5]; herbicide 10 g ae/ha alone
  % visual injury Obs: 70%
[5]; herbicide 15 g ae/ha alone
  % visual injury Obs: 88%
[6]; herbicide 7.5 g ae/ha alone
  % visual injury Obs: 88%
[6]; herbicide 10 g ae/ha alone
  % visual injury Obs: 91%
[6]; herbicide 15 g ae/ha alone
  % visual injury Obs: 91%
Kochia scoparia (kochia); Compound A 7.5 g/ha
  Herbicidal Effects (% visual injury) KCHSC Obs: 70%
Kochia scoparia (kochia); Compound A 10 g/ha
  Herbicidal Effects (% visual injury) KCHSC Obs: 65%
Kochia scoparia (kochia); herbicide 7.5 g ae/ha alone
  % visual injury Obs: 63% and 75%
Kochia scoparia (kochia); herbicide 10 g ae/ha alone
  % visual injury Obs: 65% and 73%
Kochia scoparia (kochia); herbicide 15 g ae/ha alone
  % visual injury Obs: 63%
[7]; Compound A 7.5 g/ha
  Herbicidal Effects (% visual injury) SETFA Obs: 55%
[7]; Compound A 10 g/ha
  Herbicidal Effects (% visual injury) SETFA Obs: 70%
[7]; herbicide 7.5 g ae/ha alone
  % visual injury Obs: 78%
[7]; herbicide 10 g ae/ha alone
  % visual injury Obs: 80%
[8]; Compound A 7.5 g/ha
  Herbicidal Effects (% visual injury) POLCO Obs: 100%
[8]; Compound A 10 g/ha
  Herbicidal Effects (% visual injury) POLCO Obs: 100%
[8]; herbicide 7.5 g ae/ha alone
  % visual injury Obs: 68% and 83% and 65%
[8]; herbicide 10 g ae/ha alone
  % visual injury Obs: 70% and 93% and 78%
[8]; herbicide 15 g ae/ha alone
  % visual injury Obs: 85%
[9]; herbicide 7.5 g ae/ha alone
  % visual injury Obs: 60%
[9]; herbicide 10 g ae/ha alone
  % visual injury Obs: 65%
[9]; herbicide 15 g ae/ha alone
  % visual injury Obs: 73%
[10]; herbicide 7.5 g ae/ha alone
  % visual injury Obs: 55%
[10]; herbicide 10 g ae/ha alone
  % visual injury Obs: 60%
[10]; herbicide 15 g ae/ha alone
  % visual injury Obs: 83%
[11]; Compound A 7.5 g/ha
  Herbicidal Effects (% visual injury) ECHCG Obs: 90%
[11]; Compound A 10 g/ha
  Herbicidal Effects (% visual injury) ECHCG Obs: 94%
[12]; herbicide 7.5 g ae/ha alone
  % visual injury Obs: 75%
[12]; herbicide 10 g ae/ha alone
  % visual injury Obs: 78%
[12]; herbicide 15 g ae/ha alone
  % visual injury Obs: 80%
[13]; herbicide 7.5 g ae/ha alone
  % visual injury Obs: 100%
[13]; herbicide 10 g ae/ha alone
  % visual injury Obs: 99%
[13]; herbicide 15 g ae/ha alone
  % visual injury Obs: 100%
[14]; Compound A 7.5 g/ha
  Herbicidal Effects (% visual injury) CIRAR Obs: 50%
[14]; Compound A 10 g/ha
  Herbicidal Effects (% visual injury) CIRAR Obs: 60%
[14]; herbicide 7.5 g ae/ha alone
  % visual injury Obs: 25% and 40% and 50%
[14]; herbicide 15 g ae/ha alone
  % visual injury Obs: 63%
[15]; Compound A 7.5 g/ha
  Herbicidal Effects (% visual injury) BRSNN Obs: 45%
[15]; Compound A 10 g/ha
  Herbicidal Effects (% visual injury) BRSNN Obs: 55%
[15]; herbicide 7.5 g ae/ha alone
  % visual injury Obs: 65%
[15]; herbicide 10 g ae/ha alone
  % visual injury Obs: 65%
[16]; herbicide 7.5 g ae/ha alone
  % visual injury Obs: 96%
[16]; herbicide 10 g ae/ha alone
  % visual injury Obs: 98%
[16]; herbicide 15 g ae/ha alone
  % visual injury Obs: 100%
